In patent US20240277852A1, “INHIBITORS AND DEGRADERS OF PIP4K PROTEIN” (DANA-FARBER CANCER INSTITUTE, INC., priority 2021, published 2024) one finds Kd and IC50 data, which are given here for 19 molecules.

In one assay the target is PIP4K2C (Homo sapiens (Human), UniProt Q8TBX8). Nature of the assay: KINOMEscan PIP5K2C (also known as PIP4K2C) Assay (Eurofins Discovery). It counts as binding. The procedure:
(§1) The inhibitory activity of the compounds were evaluated using KINOMEscan® PIP5K2B (also known as PIP4K2B) and KINOMEscan® PIP5K2C (also known as PIP4k2C) Assays (Eurofins Discovery) following the manufacturer's standards.

Another assay deals with PIP4K2B (Homo sapiens (Human), UniProt P78356). Nature of the assay: KINOMEscan PIP5K2B (also known as PIP4K2B) Assay (Eurofins Discovery). It counts as binding. The procedure: as §1
The target in another assay is PIP4K2A (Homo sapiens (Human), UniProt P48426). Nature of the assay: PIP4K2A inhibitory activity (Table 1). It is filed as biochemical.

Some results are limits rather than exact numbers.

A word on the Kd: it is the equilibrium constant for the complex coming apart. Higher therefore signals weaker binding. By IC50 is commonly meant the concentration that gives 50% inhibition. A higher IC50 goes with a need for much substance.

Chain of PIP4K2B (P78356 whole entry): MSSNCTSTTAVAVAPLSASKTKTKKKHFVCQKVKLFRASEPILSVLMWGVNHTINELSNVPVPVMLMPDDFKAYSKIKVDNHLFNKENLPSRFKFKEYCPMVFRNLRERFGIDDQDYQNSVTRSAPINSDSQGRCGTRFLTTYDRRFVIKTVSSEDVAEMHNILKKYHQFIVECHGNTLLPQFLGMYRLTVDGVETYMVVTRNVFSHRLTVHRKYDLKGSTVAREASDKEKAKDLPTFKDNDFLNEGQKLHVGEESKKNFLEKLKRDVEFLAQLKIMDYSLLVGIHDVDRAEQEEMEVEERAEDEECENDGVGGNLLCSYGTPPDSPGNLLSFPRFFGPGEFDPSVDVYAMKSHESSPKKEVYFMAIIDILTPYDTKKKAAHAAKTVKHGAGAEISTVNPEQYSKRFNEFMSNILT
Chain of PIP4K2C (Q8TBX8 whole entry): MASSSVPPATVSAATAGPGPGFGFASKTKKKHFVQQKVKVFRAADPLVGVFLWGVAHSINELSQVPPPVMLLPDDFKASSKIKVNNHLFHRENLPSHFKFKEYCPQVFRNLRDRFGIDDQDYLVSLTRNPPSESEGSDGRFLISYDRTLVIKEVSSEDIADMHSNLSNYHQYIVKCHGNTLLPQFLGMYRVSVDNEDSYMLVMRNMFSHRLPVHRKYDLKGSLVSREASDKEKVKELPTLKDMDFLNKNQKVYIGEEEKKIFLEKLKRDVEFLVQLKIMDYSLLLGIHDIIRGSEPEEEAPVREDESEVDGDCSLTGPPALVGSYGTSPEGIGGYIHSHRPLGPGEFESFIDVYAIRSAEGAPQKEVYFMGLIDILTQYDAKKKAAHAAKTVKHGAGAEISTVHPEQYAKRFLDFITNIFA
Chain of PIP4K2A (P48426 whole entry, species assumed): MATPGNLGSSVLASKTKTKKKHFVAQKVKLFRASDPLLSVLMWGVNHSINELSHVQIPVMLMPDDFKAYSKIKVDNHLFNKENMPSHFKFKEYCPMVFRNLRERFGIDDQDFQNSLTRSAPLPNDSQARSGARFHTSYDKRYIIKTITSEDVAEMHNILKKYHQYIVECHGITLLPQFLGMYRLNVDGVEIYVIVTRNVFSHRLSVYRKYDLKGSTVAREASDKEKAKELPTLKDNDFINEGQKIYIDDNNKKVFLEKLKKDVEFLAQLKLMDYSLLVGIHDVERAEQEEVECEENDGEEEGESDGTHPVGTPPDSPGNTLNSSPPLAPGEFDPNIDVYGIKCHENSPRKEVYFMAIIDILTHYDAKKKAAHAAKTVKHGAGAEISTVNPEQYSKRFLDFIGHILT

Consider `CC(=O)Nc1cncc(Nc2ncc(Cl)c(-c3cccc(-c4ccccc4)c3)n2)c1` [Compound 11, N-(5-((4-([1,1′-biphenyl]-3-yl)-5-chloropyrimidin-2-yl)amino)pyridin-3-yl)acetamide], for which the Kd was 0.0072 µM on PIP4K2C and > 10 µM at PIP4K2B. As to `CC(=O)Nc1ccc(C)c(Nc2ncc(Cl)c(-c3cccc(-c4ccccc4)c3)n2)c1` [Compound 9, N-(3-((4-([1,1′-biphenyl]-3-yl)-5-chloropyrimidin-2-yl)amino)-4-methylphenyl)acetamide], the Kd on PIP4K2C was 1.4 µM; on PIP4K2B it was > 10 µM. With `CC(=O)N[C@H](C(=O)N1C[C@H](O)C[C@H]1C(=O)N[C@@H](C)c1ccc(-c2scnc2C)cc1OCCCCCNC(=O)CCC(=O)Nc1cncc(Nc2ncc(Cl)c(-c3cccc(-c4ccccc4)c3)n2)c1)C(C)(C)C` [Compound 53, N1-(5-((4-([1,1′-biphenyl]-3-yl)-5-chloropyrimidin-2-yl)amino)pyridin-3-yl)-N4-(5-(2-((S)-1-((2S,4R)-1-((S)-2-acetamido-3,3-dimethylbutanoyl)-4-hydroxypyrrolidine-2-carboxamido)ethyl)-5-(4-methylthiazol-5-yl)phenoxy)pentyl)succinimide], binding at PIP4K2C was put at a Kd of 0.11 µM. As for `Cc1cc(S(N)(=O)=O)ccc1Nc1ncc(Cl)c(-c2cccc(-c3ccccc3)c2)n1` [Compound 1], the 50% inhibitory concentration (IC50) against PIP4K2A was > 10 µM. In addition, the dissociation constant (Kd) at PIP4K2C is 0.036 µM; at PIP4K2B, > 10 µM. Turning to `O=C(Nc1cncc(Nc2ncc(Cl)c(-c3cccc(-c4ccccc4)c3)n2)c1)c1ccccc1` [Compound 13, N-(5-((4-([1,1′-biphenyl]-3-yl)-5-chloropyrimidin-2-yl)amino)pyridin-3-yl)benzamide], the Kd at PIP4K2C was 0.021 µM; on PIP4K2B, > 10 µM.

`Cc1ccc(C(N)=O)cc1Nc1ncc(Cl)c(-c2cccc(-c3ccccc3)c2)n1` [Compound 10, 3-((4-([1,1′-biphenyl]-3-yl)-5-chloropyrimidin-2-yl)amino)-4-methylbenzamide] registered a Kd at PIP4K2C of 0.065 µM. For `NS(=O)(=O)c1ccc(Nc2ncc(Cl)c(-c3cccc(-c4ccccc4)c3)n2)cc1` [Compound 4], at PIP4K2A, the IC50 is > 10 µM. Moreover, the dissociation constant (Kd) was 0.064 µM at PIP4K2C and > 10 µM at PIP4K2B. The molecule `Cc1cc(C(N)=O)ccc1Nc1ncc(Cl)c(-c2cccc(-c3ccccc3)c2)n1` [Compound 5, 4-((4-([1,1′-biphenyl]-3-yl)-5-chloropyrimidin-2-yl)amino)-3-methylbenzamide] showed an equilibrium dissociation constant (Kd) on PIP4K2C of 0.046 µM. In turn, `Cc1ccc(NS(C)(=O)=O)cc1Nc1ncc(Cl)c(-c2cccc(-c3ccccc3)c2)n1` [Compound 7, N-(3-((4-([1,1′-biphenyl]-3-yl)-5-chloropyrimidin-2-yl)amino)-4-methylphenyl)methanesulfonamide] displayed a dissociation constant Kd on PIP4K2C of 0.15 µM. On PIP4K2C, `CC(=O)Nc1ccc(Nc2ncc(Cl)c(-c3cccc(-c4ccccc4)c3)n2)c(C)c1` [Compound 8, N-(4-((4-([1,1′-biphenyl]-3-yl)-5-chloropyrimidin-2-yl)amino)-3-methylphenyl)acetamide] yielded a dissociation constant (Kd) of 0.27 µM. Turning to `CC(=O)N(CC#N)S(=O)(=O)c1ccc(Nc2ncc(Cl)c(-c3cccc(-c4ccccc4)c3)n2)c(C)c1` [Compound 2], the half-inhibitory concentration (IC50) against PIP4K2A was > 10 µM. The results for the Kd on PIP4K2C and on PIP4K2B were 0.056 µM and > 10 µM, respectively. For `O=C(Nc1cncc(Nc2ncc(Cl)c(-c3cccc(-c4cccnc4)c3)n2)c1)c1ccccc1` [Compound 14], the Kd was 0.038 µM at PIP4K2C and > 10 µM on PIP4K2B.

For the molecule `O=C1CC[C@H]2COc3ncc(Nc4ncc(Cl)c(-c5cccc(-c6ccccc6)c5)n4)cc3N12` [Compound 15, (S)-2-((4-([1,1′-biphenyl]-3-yl)-5-chloropyrimidin-2-yl)amino)-6,6a,7,8-tetrahydro-9H-pyrido[2,3-b]pyrrolo[1,2-d][1,4]oxazin-9-one], the Kd at PIP4K2C was 0.00045 µM; on PIP4K2B it was > 10 µM. Consider `O=C(COc1cccc2c1C(=O)N(C1CCC(=O)NC1=O)C2=O)NCCOCCOCCNS(=O)(=O)c1ccc(Nc2ncc(Cl)c(-c3cccc(-c4ccccc4)c3)n2)cc1` (centres unmarked) [Compound 36, N-(2-(2-(2-((4-((4-([1,1′-biphenyl]-3-yl)-5-chloro-1|4-pyrimidin-2-yl)amino)phenyl)sulfonamido)ethoxy)ethoxy)ethyl)-2-((2-(2,6-dioxopiperidin-3-yl)-1,3-dioxoisoindolin-4-yl)oxy)acetamide], for which, at PIP4K2C, the affinity, expressed as Kd, was 0.46 µM.

`CC(=O)N(C)S(=O)(=O)c1ccc(Nc2ncc(Cl)c(-c3cccc(-c4ccccc4)c3)n2)c(C)c1` [Compound 3, N-((4-((4-([1,1′-biphenyl]-3-yl)-5-chloropyrimidin-2-yl)amino)-3-methylphenyl)sulfonyl)-N-methylacetamide] had an IC50 against PIP4K2A of 8.76 µM. Also, the Kd on PIP4K2C is 0.029 µM; at PIP4K2B, > 10 µM. With `Cc1ncsc1-c1ccc(CNC(=O)[C@@H]2C[C@@H](O)CN2C(=O)[C@@H](NC(=O)C2(F)CC2)C(C)(C)C)c(OCCCCCCC(=O)N2CCC3(CC2)CCN(c2cncc(Nc4ncc(Cl)c(-c5cccc(-c6ccccc6)c5)n4)c2)C3=O)c1` [Compound 56, (2S,4R)—N-(2-((7-(2-(5-((4-([1,1′-biphenyl]-3-yl)-5-chloropyrimidin-2-yl)amino)pyridin-3-yl)-1-oxo-2,8-diazaspiro[4,5]decan-8-yl)-7-oxoheptyl)oxy)-4-(4-methylthiazol-5-yl)benzyl)-1-((S)-2(1-fluorocyclopropane-1-carboxamido)-3,3-dimethylbutanoyl)-4-hydroxypyrrolidine-2-carboxamide], the Kd on PIP4K2C was 0.62 µM; at PIP4K2B, > 10 µM.

As to `Cc1ncsc1-c1ccc([C@H](C)NC(=O)[C@@H]2C[C@@H](O)CN2C(=O)[C@@H](NC(=O)CCCCCC(=O)N2CCC3(CC2)CCN(c2cncc(Nc4ncc(Cl)c(-c5cccc(-c6ccccc6)c5)n4)c2)C3=O)C(C)(C)C)cc1` [Compound 57], the dissociation constant Kd at PIP4K2C was 0.042 µM; at PIP4K2B, > 10 µM. As to `Cc1cc(NS(C)(=O)=O)ccc1Nc1ncc(Cl)c(-c2cccc(-c3ccccc3)c2)n1` [Compound 6, N-(4-((4-([1,1′-biphenyl]-3-yl)-5-chloropyrimidin-2-yl)amino)-3-methylphenyl)methanesulfonamide], the equilibrium dissociation constant (Kd) on PIP4K2C turned out to be 0.043 µM. `O=C(Nc1cccc(Nc2ncc(Cl)c(-c3cccc(-c4ccccc4)c3)n2)c1)c1ccccc1` [Compound 12, N-(3-((4-([1,1′-biphenyl]-3-yl)-5-chloropyrimidin-2-yl)amino)phenyl)benzamide]: the figures for the Kd at PIP4K2C and on PIP4K2B were 0.14 µM and > 10 µM, respectively.
